Measured values taken from patent US7390833B2, “Method for treating ADAMTS-5-associated disease” (Wyeth, priority 2003, dated 2008).

Assays:
[1] = target: T1, ADAMTS-5 (Agg-2), purified recombinant human Aggrecanase-2 (Ag2t-Phe628-Strep) (Homo sapiens, UniProt Q9UNA0); test: Inhibition of aggrecanase activity of ADAMTS-5 (Agg-2), continuous fluorescent quenched-peptide assay (WAKB-5 substrate); assay type: biochemical; details: concentration that inhibits 50% of the aggrecanase activity of ADAMTS-5 (Agg-2); substrate 25 μM, pH 7.4, room temperature
T1 construct: the form used is denoted as Ag2t-Phe628-Strep (MW=41,737)
T1 sequence (Q9UNA0 262-628): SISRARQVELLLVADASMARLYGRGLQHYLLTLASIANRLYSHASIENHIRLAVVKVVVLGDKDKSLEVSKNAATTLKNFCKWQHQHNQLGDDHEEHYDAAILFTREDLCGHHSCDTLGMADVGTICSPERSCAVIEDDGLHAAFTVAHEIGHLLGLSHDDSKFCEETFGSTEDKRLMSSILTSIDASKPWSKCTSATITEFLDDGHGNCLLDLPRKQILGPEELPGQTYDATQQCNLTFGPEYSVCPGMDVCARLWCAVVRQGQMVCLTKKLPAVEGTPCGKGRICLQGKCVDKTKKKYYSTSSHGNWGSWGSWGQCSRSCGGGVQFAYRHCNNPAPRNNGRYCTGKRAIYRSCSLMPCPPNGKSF
Procedure: The biaryl sulfonamide compounds of the present invention were tested for their ability to inhibit the aggrecanase activity of ADAMTS-4 (Agg-1) and ADAMTS-5 (Agg-2).
A continuous assay was used in which the substrate upon which Agg-1 and […] acts is a synthetic peptide containing a fluorescent group that is quenched by energy transfer. Cleavage of the peptide by the aggrecanase enzyme results in a large increase in fluorescence. The initial rates of the reaction are compared to the initial rates of reactions containing the biaryl sulfonamide compounds in order to assess the inhibitor potency of the compounds.
The source of enzyme in the assay is purified recombinant human Aggrecanase-2. More specifically, the form used is denoted as Ag2t-Phe628-Strep (MW=41,737). This form is truncated relative to the full-length enzyme and contains an affinity tag. Aliquots of this enzyme were stored at −80° C. in 25 mM Tris (pH 8.0), 100 mM NaCl, 5 mM CaCl2, 10 μM ZnCl2, 10% glycerol.
The substrate in the assay is a synthetic peptide that is designed after a portion of brevican, one of the naturally occurring substrates of Aggrecanase-2. […] WAKB-5 (mass=1740) was custom synthesized by AnaSpec, Inc. (San Jose, Calif.) and was >95% pure based on HPLC analysis. […] Stock solutions of the substrate were prepared with MilliQ water and aliquots were stored at −80° C. The concentration of this substrate stock was spectrophotometrically determined using the extinction coefficient at 354 nm of 18,172 M^−1 cm^−1.
The assay buffer (pH 7.4) consisted of 50 mM Hepes, 100 mM NaCl, 5 mM CaCl2, 0.1% CHAPS, 5% glycerol. Each well of black polystyrene 96-well or 384-well plates contained a reaction consisting of assay buffer, purified Agg-2 (diluted with assay buffer), and varied concentrations of inhibitor (prepared by serial dilution in DMSO in 96-well polypropylene plates). The plates were then incubated at room temperature for 10 minutes. The enzymatic reactions were initiated by adding substrate to a final concentration of 25 μM and were mixed by pipetting up and down. The initial rates of the cleavage reactions were determined at room temperature with a fluorescence plate reader immediately after substrate addition.
Analysis of the results was conducted by generating a plot of time vs. RFU for each sample. This was used as the “progress curve” of the reaction. The slope for the portion of the progress curve that is most linear was then determined. This slope (RFU/min) was used as the initial rate of the reaction. Plots of the inhibitor concentration vs. the initial cleavage rate were then fit to the following equation: y=Vmax*(1−(x^n/(K^n+x^n))), whereby x=inhibitor concentration, y=initial rate, Vmax=initial rate in the absence of inhibitor, n=slope factor, and K=IC50 for the inhibition curve.

[2] = target: T2, ADAMTS-4 (Agg-1) (Homo sapiens, UniProt O75173); test: Inhibition of aggrecanase activity of ADAMTS-4 (Agg-1), continuous fluorescent quenched-peptide assay; assay type: biochemical; details: concentration that inhibits 50% of the aggrecanase activity of ADAMTS-4 (Agg-1);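 also: purified enzyme preincubated 10 min with inhibitor at room temperature, then initial substrate cleavage rate (RFU/min) read by fluorescence plate reader versus the uninhibited rate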
T2 sequence (O75173 213-837): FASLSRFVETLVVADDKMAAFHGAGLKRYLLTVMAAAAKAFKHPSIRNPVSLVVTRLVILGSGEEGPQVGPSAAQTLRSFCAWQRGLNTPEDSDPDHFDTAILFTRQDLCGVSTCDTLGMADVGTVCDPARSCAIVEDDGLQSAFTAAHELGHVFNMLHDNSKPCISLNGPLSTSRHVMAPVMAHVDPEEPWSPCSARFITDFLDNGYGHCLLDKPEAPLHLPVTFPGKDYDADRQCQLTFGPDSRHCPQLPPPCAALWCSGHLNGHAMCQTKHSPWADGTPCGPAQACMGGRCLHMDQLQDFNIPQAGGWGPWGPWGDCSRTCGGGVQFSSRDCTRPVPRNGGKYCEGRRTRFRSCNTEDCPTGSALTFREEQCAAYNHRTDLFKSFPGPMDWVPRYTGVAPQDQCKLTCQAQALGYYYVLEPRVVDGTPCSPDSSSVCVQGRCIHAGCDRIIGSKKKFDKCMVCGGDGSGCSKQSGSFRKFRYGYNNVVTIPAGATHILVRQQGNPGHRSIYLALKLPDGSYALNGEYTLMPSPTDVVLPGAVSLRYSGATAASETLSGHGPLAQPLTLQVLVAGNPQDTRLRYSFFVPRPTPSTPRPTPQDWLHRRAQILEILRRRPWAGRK
Procedure: A continuous assay was used in which the substrate upon which Agg-1 and Agg-1 acts is a synthetic peptide containing a fluorescent group that is quenched by energy transfer. […] The initial rates of the reaction are compared to the initial rates of reactions containing the biaryl sulfonamide compounds in order to assess the inhibitor potency of the compounds.
The assay buffer (pH 7.4) consisted of 50 mM Hepes, 100 mM NaCl, 5 mM CaCl2, 0.1% CHAPS, 5% glycerol. Each well of black polystyrene 96-well or 384-well plates contained a reaction consisting of assay buffer, purified Agg-2 (diluted with assay buffer), and varied concentrations of inhibitor (prepared by serial dilution in DMSO in 96-well polypropylene plates). The plates were then incubated at room temperature for 10 minutes. […] The initial rates of the cleavage reactions were determined at room temperature with a fluorescence plate reader immediately after substrate addition.

| SMILES | IC50 [1] [µM] | IC50 [2] [µM] |
| --- | --- | --- |
| CC(C)[C@@H](NS(=O)(=O)c1ccc(-c2ccc(COc3ccc(Oc4ccccc4)cc3)cc2)cc1F)C(=O)O | > 200 | 0.1 |
| COc1ccc(C(=O)c2ccc(OCc3ccc(-c4ccc(S(=O)(=O)N[C@@H](C(=O)O)C(C)C)cc4)cc3)cc2)cc1 | > 100 | 0.3 |
| CC(C)[C@@H](NS(=O)(=O)c1ccc(-c2ccc(COc3ccc(C(=O)N4CCCC4)cc3)cc2)cc1)C(=O)O | 67 | 1.9 |
| CC(C)[C@@H](NS(=O)(=O)c1ccc(-c2ccc(COc3cccc(O)c3)cc2)cc1)C(=O)O | 13 | 1.1 |
| CC(=O)c1cccc(OCc2ccc(-c3ccc(S(=O)(=O)N[C@@H](C(=O)O)C(C)C)cc3)cc2)c1 | 12.6 | 1 |
| CC(C)[C@@H](NS(=O)(=O)c1ccc(-c2ccc(COc3cccc4[nH]ccc34)cc2)cc1)C(=O)O | 12 | 1.9 |
| CC(C)[C@@H](NS(=O)(=O)c1ccc(-c2ccc(COc3ccc(F)cc3)cc2)cc1)C(=O)O | 11.3 | 1.7 |
| Cc1cc(-c2ccc(COc3ccc4c(c3)CCCC4=O)cc2)ccc1S(=O)(=O)N[C@@H](C(=O)O)C(C)C | 11.2 | 0.9 |
| COc1ccc(OCc2ccc(-c3ccc(S(=O)(=O)N[C@@H](C(=O)O)C(C)C)cc3)cc2)cc1 | 10.7 | 1.6 |
| CC(C)[C@@H](NS(=O)(=O)c1ccc(-c2ccc(COc3ccc(Oc4ccccn4)cc3)cc2)cc1)C(=O)O | 10.6 | 0.9 |
| CC(C)[C@@H](NS(=O)(=O)c1ccc(-c2ccc(COc3cccc(F)c3)cc2)cc1)C(=O)O | 8.2 | – |
| CC(C)[C@@H](NS(=O)(=O)c1ccc(-c2ccc(COc3ccc4c(c3)CCCC4=O)cc2)cc1)C(=O)O | 7.5 | 0.2 |
| CC(=O)c1ccc(OCc2ccc(-c3ccc(S(=O)(=O)N[C@@H](C(=O)O)C(C)C)cc3)cc2)cc1 | 7 | 0.4 |
| CC(C)[C@@H](NS(=O)(=O)c1ccc(-c2ccc(COc3ccc4c(c3)CCCC4=O)cc2)cc1F)C(=O)O | 6.6 | 0.2 |
| CC(C)[C@@H](NS(=O)(=O)c1ccc(-c2ccc(COc3cccc(O)n3)cc2)cc1)C(=O)O | 6.5 | 0.4 |
| COc1ccc(COc2ccc(-c3ccc(S(=O)(=O)N[C@@H](C(=O)O)C(C)C)cc3)cc2)cc1 | 6.3 | 1.9 |
| COc1cccc(OCc2ccc(-c3ccc(S(=O)(=O)N[C@@H](C(=O)O)C(C)C)cc3)cc2)c1 | 5.8 | 1.8 |
| CC(C)[C@@H](NS(=O)(=O)c1ccc(-c2ccc(COc3ccc(NC(=O)OC(C)(C)C)cc3)cc2)cc1)C(=O)O | 5.4 | 0.6 |
| CC(C)[C@@H](NS(=O)(=O)c1ccc(-c2ccccc2)cc1)C(=O)O | 5 | 2.6 |

| SMILES | IC50 [1] [µM] | IC50 [2] [µM] |
| --- | --- | --- |
| Cc1cccc(Oc2ccc(OCc3ccc(-c4ccc(S(=O)(=O)N[C@@H](C(=O)O)C(C)C)cc4)cc3)cc2)n1 | 4 | 0.7 |
| Cc1cccc(Oc2ccc(OCc3ccc(-c4ccc(S(=O)(=O)N[C@@H](C(=O)O)C(C)C)c(F)c4)cc3)cc2)n1 | 3.5 | 0.9 |
| Cc1c(COc2ccc(-c3ccc(S(=O)(=O)N[C@@H](C(=O)O)C(C)C)cc3)cc2)oc2ccccc12 | 3.4 | 1.1 |
| CC(C)[C@@H](NS(=O)(=O)c1ccc(-c2ccc(COc3cccc(C(=O)c4ccccc4)c3)cc2)cc1)C(=O)O | 3.4 | 0.2 |
| Cc1cccc(Oc2ccc(OCc3ccc(-c4ccc(S(=O)(=O)N[C@@H](C(=O)O)C(C)C)c(Cl)c4)cc3)cc2)n1 | 3.2 | 0.9 |
| COc1cc(COc2ccc(-c3ccc(S(=O)(=O)N[C@@H](C(=O)O)C(C)C)cc3)cc2)cc(OC)c1 | 3.2 | 1.9 |
| CC(C)[C@@H](NS(=O)(=O)c1ccc(-c2ccc(OCc3ccc4c(c3)OCCO4)cc2)cc1)C(=O)O | 3 | 1.4 |
| O=C(O)CC[C@H](NC(=O)c1ccc(-c2ccccc2)cc1)C(=O)NCc1ccc(F)cc1 | 2.8 | 0.2 |
| CC(C)[C@@H](NS(=O)(=O)c1ccc(-c2ccc(COc3ccc(C(=O)C4CCCCC4)cc3)cc2)cc1)C(=O)O | 2.6 | 0.1 |
| CC(C)[C@@H](NS(=O)(=O)c1ccc(-c2ccc(COc3cccc(C(=O)C4CCCCC4)c3)cc2)cc1)C(=O)O | 2.4 | 0.4 |
| CC(C)[C@@H](NS(=O)(=O)c1ccc(-c2ccc(COc3ccc4c(c3)CCC4)cc2)cc1)C(=O)O | 2.4 | 0.4 |
| CC(C)[C@@H](NS(=O)(=O)c1ccc(-c2ccc(COc3ccc(C(=O)c4ccccc4)cc3)cc2)cc1)C(=O)O | 2 | 0.2 |
| CC(C)[C@@H](NS(=O)(=O)c1ccc(-c2ccc(COc3cc(C(F)(F)F)nc4c(C(F)(F)F)cccc34)cc2)cc1)C(=O)O | 1.8 | 0.2 |
| CC(C)[C@@H](NS(=O)(=O)c1ccc(-c2ccc(COc3ccc(C4CCCC4)cc3)cc2)cc1)C(=O)O | 0.8 | 0.4 |
| CC(C)[C@@H](NS(=O)(=O)c1ccc(-c2ccc(COc3ccc(Oc4ccccc4)cc3)cc2)cc1)C(=O)O | 0.4 | 0.4 |
| CC(C)C(=O)c1ccc(OCc2ccc(-c3ccc(S(=O)(=O)N[C@@H](C(=O)O)C(C)C)cc3)cc2)cc1 [drawing 151] | 8.4 | 0.1 |
| CC(C)C(=O)c1ccc(OCc2ccc(-c3ccc(S(=O)(=O)N[C@@H](C(=O)O)C(C)C)cc3)cc2)cc1 [drawing 152] | 8.4 | 0.1 |
| CC(C)[C@@H](NS(=O)(=O)c1ccc(-c2ccc(COc3ccc(C(=O)c4ccc(F)cc4)cc3)cc2)cc1)C(=O)O [drawing 171] | 2.5 | 0.1 |
| CC(C)[C@@H](NS(=O)(=O)c1ccc(-c2ccc(COc3ccc(C(=O)c4ccc(F)cc4)cc3)cc2)cc1)C(=O)O [drawing 172] | 2.4 | 0.1 |
